What was measured:
HT29 = experiment: LDH cytotoxicity assay, colorectal adenocarcinoma HT29; assay type: cell-based; conditions: Homo sapiens
Text: (§1) Human cancer and the corresponding normal cell lines, used in the study, were grouped as follows: skin panel (melanoma HTB140, derived from metastatic site: lymph node, ATCC Hs 294T; malignant melanoma A375, ATCC CRL-1619; stage I primary melanoma WM793, RRID:CVCL 8787; skin keratinocytes HaCaT), prostate panel (prostate carcinoma Du145, derived from metastatic site: brain, ATCC HTB-81; grade IV prostate carcinoma, PC3, derived from metastatic site: bone, ATCC CRL-1435; prostate epithelial cells PNT2, ECACC 95012613), gastrointestinal panel (colorectal adenocarcinomas Caco2, ATCC HTB-37, and HT29, ATCC HTB-38; hepatocellular carcinoma HepG2, ATCC HB-8065), thyroid panel (follicular thyroid carcinoma FTC133, ECACC 94060901; undifferentiated thyroid carcinoma 8505C, ECACC 94090184; Nthy-ori 3–1, human thyroid follicular epithelial cells, ECACC 90011609), lung carcinoma A549 cells (ATCC CRM-CCL-185). Cells were grown at standard conditions (37 °C, 5% CO2, relative humidity) and culture media (DMEM/F12 for PNT2, WM 793, HT29, PC3, FTC133, 8505C, A549; DMEM Low Glucose for DU145; DMEM High Glucose for HTB140, A375, HaCaT; MEM with NEAA for Caco2), supplemented with 10% fetal bovine serum (FBS) and 1% antibiotics solution (10 000 U penicillin and 10 mg streptomycin/mL). All culture media and supplements were from Sigma-Aldrich.
(§2) Cell viability was measured with the lactate dehydrogenase (LDH) assay (Clontech, Mountain View, CA, USA), as described previously. Before the experiment, cells were seeded onto 96-well plates for 24 h (1.5 × 10^4 cells/well). The culture medium was replaced with a fresh medium containing different concentrations of the tested extracts (10–100 μg/mL, in DMSO) and incubated for 24 and 48 h. The absorbance was measured at 490 nm using a Biotek Synergy microplate reader. Cell viability was expressed as percent of the dead cells and IC50 values were also calculated. Each experiment was done in triplicate.
(§3) Data were analyzed using Statistica v. 13.3 (Stat Soft, TIBCO, Palo Alto, CA, USA). Each variable was expressed as mean (± SD). The statistical significance in cytotoxic assay was determined using Mann–Whitney U test. The value p < 0.05 was considered to indicate significant differences. NMR Spectra were analyzed using ACD/Labs ^1D NMR Processor 12.0 (Academic Edition) and JEOL DELTA v 5.3.1 (Jeol Resonance Inc., JEOL, Tokyo, Japan). In MS analysis MassLynx V 4.1 (Waters, Milford, MA, USA) and Compass DataAnalysis (Bruker, Billerica, MA, USA) software were used. IC50 values in cytotoxic assay were calculated using Origin Pro 2020b (OriginLab Corporation, Northampton, MA, USA).

PNT2 = experiment: LDH cytotoxicity assay, normal prostate epithelial PNT2; assay type: cell-based; conditions: Homo sapiens
Text: as §1, §2, §3

DU-145 = experiment: LDH cytotoxicity assay, prostate carcinoma DU-145; assay type: cell-based; conditions: Homo sapiens
Text: as §1, §2, §3

A549 = experiment: LDH cytotoxicity assay, lung carcinoma A549; assay type: cell-based; conditions: Homo sapiens
Text: as §1, §2, §3

Nthy-ori 3–1 = experiment: LDH cytotoxicity assay, thyroid follicular epithelial cells Nthy-ori 3–1; assay type: cell-based; conditions: Homo sapiens
Text: as §1, §2, §3

HepG2 = experiment: LDH cytotoxicity assay, hepatocellular carcinoma HepG2; assay type: cell-based; conditions: Homo sapiens
Text: as §1, §2, §3

A375 = experiment: LDH cytotoxicity assay, malignant melanoma A375; assay type: cell-based; conditions: Homo sapiens
Text: as §1, §2, §3

HTB-140 = experiment: LDH cytotoxicity assay, melanoma HTB-140; assay type: cell-based; conditions: Homo sapiens
Text: as §1, §2, §3

WM793 = experiment: LDH cytotoxicity assay, primary melanoma WM793; assay type: cell-based; conditions: Homo sapiens
Text: as §1, §2, §3

HaCaT = experiment: LDH cytotoxicity assay, skin keratinocytes HaCaT; assay type: cell-based; conditions: Homo sapiens
Text: as §1, §2, §3

PC3 = experiment: LDH cytotoxicity assay, prostate carcinoma PC3; assay type: cell-based; conditions: Homo sapiens
Text: as §1, §2, §3

8505C = experiment: LDH cytotoxicity assay, undifferentiated thyroid carcinoma 8505C; assay type: cell-based; conditions: Homo sapiens
Text: as §1, §2, §3

Caco-2 = experiment: LDH cytotoxicity assay, colorectal adenocarcinoma Caco-2; assay type: cell-based; conditions: Homo sapiens
Text: as §1, §2, §3

FTC133 = experiment: LDH cytotoxicity assay, follicular thyroid carcinoma FTC133; assay type: cell-based; conditions: Homo sapiens
Text: as §1, §2, §3

HeLa cells = tested on: HeLa cells; set-up: method as in doi:10.1007/s11101-009-9121-0; conditions: cited from earlier work

## COC(=O)[C@@]1(C)CC[C@]2(C(=O)O[C@@H]3O[C@H](CO)[C@@H](O)[C@H](O)[C@H]3O)CC[C@]3(C)C(=CC[C@@H]4[C@@]5(C)CC[C@H](O[C@@H]6OC[C@H](O)[C@H](O)[C@H]6O[C@@H]6O[C@@H](C)[C@H](O)[C@@H](O)[C@H]6O)C(C)(C)[C@@H]5CC[C@]43C)[C@@H]2C1 [Compound 1, 3-O-α-L-Rhamnopyranosyl-(1→2)-α-L-Arabinopyranosyl Serjanic Acid 28-O-β-D-Glucopyranosyl Ester]
HT29; HT-29, HT29, 24 h
  IC50: 57.9 µg/mL
HT29; HT-29, HT29, 48 h
  IC50: 22.8 µg/mL
PNT2; PNT2, 24 h
  IC50: > 100 µg/mL
PNT2; PNT2, 48 h
  IC50: > 100 µg/mL
DU-145; DU-145, 24 h
  IC50: 16.6 µg/mL
DU-145; DU-145, 48 h
  IC50: 7.25 µg/mL
A549; A549, 24 h
  IC50: 61.3 µg/mL
A549; A549, 48 h
  IC50: 34.7 µg/mL
Nthy-ori 3–1; Nthy-ori 3–1, 24 h
  IC50: > 100 µg/mL
Nthy-ori 3–1; Nthy-ori 3–1, 48 h
  IC50: > 100 µg/mL
HepG2; HepG2, 24 h
  IC50: > 100 µg/mL
HepG2; HepG2, 48 h
  IC50: 76.6 µg/mL
A375; A-375, A375, 24 h
  IC50: 32.4 µg/mL
A375; A-375, A375, 48 h
  IC50: 20.3 µg/mL
HTB-140; HTB-140, 24 h
  IC50: 11.7 µg/mL
HTB-140; HTB-140, 48 h
  IC50: 7.95 µg/mL
WM793; WM793, 24 h
  IC50: 17.2 µg/mL
WM793; WM793, 48 h
  IC50: 9.92 µg/mL
HaCaT; 24 h
  IC50: > 100 µg/mL
HaCaT; 48 h
  IC50: > 100 µg/mL
PC3; PC-3, PC3, 24 h
  IC50: 34.3 µg/mL
PC3; PC-3, PC3, 48 h
  IC50: 19.5 µg/mL
8505C; 24 h
  IC50: > 100 µg/mL
8505C; 48 h
  IC50: > 100 µg/mL
Caco-2; Caco-2, 24 h
  IC50: 28.7 µg/mL
Caco-2; Caco-2, 48 h
  IC50: 15.3 µg/mL
FTC133; FTC-133, FTC133, 24 h
  IC50: > 100 µg/mL
FTC133; FTC-133, FTC133, 48 h
  IC50: 76.3 µg/mL

## COC(=O)[C@@]1(C)CC[C@]2(C(=O)O[C@@H]3O[C@H](CO)[C@@H](O)[C@H](O)[C@H]3O)CC[C@]3(C)C(=CC[C@@H]4[C@@]5(C)CC[C@H](O[C@@H]6OC[C@H](O)[C@H](O)[C@H]6O)C(C)(C)[C@@H]5CC[C@]43C)[C@@H]2C1 [Compound 2, 3-O-α-L-Arabinopyranosyl Serjanic Acid 28-O-β-D-Glucopyranosyl Ester]
HT29; HT-29, HT29, 24 h
  IC50: 10.7 µg/mL
HT29; HT-29, HT29, 48 h
  IC50: 6.48 µg/mL
PNT2; PNT2, 24 h
  IC50: > 100 µg/mL
PNT2; PNT2, 48 h
  IC50: > 100 µg/mL
DU-145; DU-145, 24 h
  IC50: 33.1 µg/mL
DU-145; DU-145, 48 h
  IC50: 23.5 µg/mL
A549; A549, 24 h
  IC50: 41.7 µg/mL
A549; A549, 48 h
  IC50: 28.3 µg/mL
Nthy-ori 3–1; Nthy-ori 3–1, 24 h
  IC50: > 100 µg/mL
Nthy-ori 3–1; Nthy-ori 3–1, 48 h
  IC50: > 100 µg/mL
HepG2; HepG2, 24 h
  IC50: 54.2 µg/mL
HepG2; HepG2, 48 h
  IC50: 39 µg/mL
A375; A-375, A375, 24 h
  IC50: 39.4 µg/mL
A375; A-375, A375, 48 h
  IC50: 29.3 µg/mL
HTB-140; HTB-140, 24 h
  IC50: 39.2 µg/mL
HTB-140; HTB-140, 48 h
  IC50: 25.1 µg/mL
WM793; WM793, 24 h
  IC50: 32.2 µg/mL
WM793; WM793, 48 h
  IC50: 16.8 µg/mL
HaCaT; 24 h
  IC50: > 100 µg/mL
HaCaT; 48 h
  IC50: > 100 µg/mL
PC3; PC-3, PC3, 24 h
  IC50: 23.8 µg/mL
PC3; PC-3, PC3, 48 h
  IC50: 18.3 µg/mL
8505C; 24 h
  IC50: > 100 µg/mL
8505C; 48 h
  IC50: > 100 µg/mL
HeLa cells
  cytotoxicity towards HeLa cells: inactive
Caco-2; Caco-2, 24 h
  IC50: 20.7 µg/mL
Caco-2; Caco-2, 48 h
  IC50: 12.6 µg/mL
FTC133; FTC-133, FTC133, 24 h
  IC50: > 100 µg/mL
FTC133; FTC-133, FTC133, 48 h
  IC50: > 100 µg/mL

## COc1cccc2c1C(=O)c1c(O)c3c(c(O)c1C2=O)C[C@@](O)(C(=O)CO)C[C@@H]3O[C@H]1C[C@H](N)[C@H](O)[C@H](C)O1 [Doxorubicin, reference compound]
HT29; HT-29, HT29, 24 h
  IC50: 1.53 µg/mL
PNT2; PNT2, 24 h
  IC50: 1.38 µg/mL
DU-145; DU-145, 24 h
  IC50: 3.18 µg/mL
A549; A549, 24 h
  IC50: 1.73 µg/mL
HepG2; HepG2, 24 h
  IC50: 1.03 µg/mL
A375; A-375, A375, 24 h
  IC50: 0.59 µg/mL
HTB-140; HTB-140, 24 h
  IC50: 5.71 µg/mL
WM793; WM793, 24 h
  IC50: > 40 µg/mL
HaCaT; 24 h
  IC50: 4.68 µg/mL
PC3; PC-3, PC3, 24 h
  IC50: > 50 µg/mL
8505C; 24 h
  IC50: > 40 µg/mL
Caco-2; Caco-2, 24 h
  IC50: 3.44 µg/mL
FTC133; FTC-133, FTC133, 24 h
  IC50: 4.02 µg/mL

— paper PMC8401257, “Serjanic Acid Glycosides from Chenopodium hybridum L. with Good Cytotoxicity and Selectivity Profile against Several Panels of Human Cancer Cell Lines” (Molecules, 2021)
